The record followed here is patent US20210251218A1, “BIO-HERBICIDE BASED ON ESSENTIAL OIL” (Université de Liège, priority 2018, published 2021).

The test relates to Bryophyte (adult stage). The experiment in a line: Essay 1: post-emergence activity on Bryophyte. The class given is in vivo. Conditions: spraying 100 ml/m^2; 7 days after treatment; score 0 = healthy plant, 6 = dead plant; FIG. 3. The method, then: In order to assess the post-emergence activity of compositions according to the invention on Bryophyte (adult stage), different compositions according to the invention (HE1 and HE2—see Table 3) were tested by spraying (100 ml/m^2) on Bryophytes (adult stage). Pelargonic acid at a concentration of 30 g/L (PA) (Compo®) was used as a positive control and a composition without the active substance (essential oil) (SSA) was also tested. [table] For Bryophytes, it is recognized that the score of 0 represents a healthy and undamaged plant while a score of 6 represents a dead plant. These scores were determined 7 days after treatment with the different compositions.

With `CCCCCCCCC(=O)O` [pelargonic acid], the toxicity score is on record as 6.
